According to PubChem BioAssay (NCI):
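Cultured in 96-well plates, cells were exposed to test compound for 48 hours across five concentrations. Here, GI50 denotes the concentration required for 50% inhibition of growth. TGI denotes the concentration required for complete inhibition of growth.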

Columns and labels:
Assay in all cases: NCI anticancer screen, dose series, 48 h
A498 renal = system: A498 renal
CAKI-1 renal = system: CAKI-1 renal
HOP-92 NSCLC = system: HOP-92 NSCLC
K-562 leukemia = system: K-562 leukemia
KM12 colon = system: KM12 colon
LOX IMVI melanoma = system: LOX IMVI melanoma
NCI-H23 lung = system: NCI-H23 lung
NCI/ADR-RES ovarian = system: NCI/ADR-RES ovarian
RPMI-8226 leukemia = system: RPMI-8226 leukemia
SF-268 CNS = system: SF-268 CNS
SF-295 CNS = system: SF-295 CNS
SK-OV-3 ovarian = system: SK-OV-3 ovarian
SW-620 colon = system: SW-620 colon
UACC-257 melanoma = system: UACC-257 melanoma
TK-10 renal = system: TK-10 renal

SMILES	TGI (A498 renal)	GI50 (CAKI-1 renal)	TGI (CAKI-1 renal)	GI50 (HOP-92 NSCLC)	TGI (HOP-92 NSCLC)	TGI (K-562 leukemia)	TGI (KM12 colon)	TGI (LOX IMVI melanoma)	TGI (NCI-H23 lung)	GI50 (NCI/ADR-RES ovarian)	TGI (NCI/ADR-RES ovarian)	GI50 (RPMI-8226 leukemia)	TGI (RPMI-8226 leukemia)	TGI (SF-268 CNS)	GI50 (SF-295 CNS)	TGI (SF-295 CNS)	TGI (SK-OV-3 ovarian)	TGI (SW-620 colon)	TGI (UACC-257 melanoma)	TGI (TK-10 renal)
[Cl-].[Rh+3].c1ccc(-c2ccnc3c2ccc2c(-c4ccccc4)ccnc23)cc1.c1ccc(-c2ccnc3c2ccc2c(-c4ccccc4)ccnc23)cc1.c1ccc(-c2ccnc3c2ccc2c(-c4ccccc4)ccnc23)cc1	> 83.4 µM	60.5 µM	> 100 µM	19 µM	> 77.9 µM	> 78.4 µM	19.7 µM	> 100 µM	> 100 µM	73.2 µM	> 100 µM	29.2 µM	> 100 µM	> 100 µM	31.3 µM	> 100 µM	> 100 µM	> 100 µM	> 100 µM	–
CC(C)(C)OC(=O)C1=C(C(=O)OC(C)(C)C)SC2(S1)C(C(=O)OC(C)(C)C)=C(C(=O)OC(C)(C)C)Sc1c2ssc1=O	> 100 µM	–	> 100 µM	–	> 100 µM	> 100 µM	> 100 µM	> 100 µM	> 100 µM	–	> 100 µM	–	> 100 µM	> 100 µM	–	> 100 µM	> 100 µM	> 100 µM	> 100 µM	> 100 µM
C/C=C(/C)C(=O)O[C@@H]1c2c(C)coc2C[C@H]2CC[C@H](O)[C@H](C)[C@]21C	–	–	> 100 µM	–	> 100 µM	> 100 µM	> 100 µM	> 100 µM	> 100 µM	–	55.9 µM	–	> 100 µM	> 100 µM	–	> 100 µM	> 100 µM	> 100 µM	> 100 µM	> 100 µM
C=C(C)C1Cc2c(cc(O)c3c(=O)c4ccccc4n(C)c23)O1 (stereo not drawn)	92.6 µM	–	56.7 µM	–	54.5 µM	–	> 100 µM	37.2 µM	> 100 µM	–	–	–	> 100 µM	73 µM	–	79.6 µM	84.6 µM	> 100 µM	> 100 µM	34.8 µM
O=[N+]([O-])c1ccc(/C=C/c2ccc(N=Nc3ccc(/C=C/c4ccc([N+](=O)[O-])cc4S(=O)(=O)O)c(S(=O)(=O)O)c3)cc2S(=O)(=O)O)c(S(=O)(=O)O)c1	> 100 µM	–	–	–	> 94.3 µM	> 100 µM	> 100 µM	> 100 µM	> 100 µM	–	> 100 µM	–	–	> 100 µM	–	> 100 µM	> 100 µM	> 100 µM	> 100 µM	–
